Test results: patent US7094429B2, “Process for preparing tannate liquid and semi-solid dosage forms” (Kiel Laboratories, Inc., priority 2001, dated 2006)

Key:
[1] = Conversion process: active dissolved in supernatant of centrifuged MAS/tannic acid conversion samples; conditions: for Assay (% Dissolved) 10 mins / Assay (% Dissolved) 20 mins / Assay (% Dissolved) 30 mins: in-situ tannate conversion, centrifuged at 6500 rpm; for Assay (% Dissolved) 10 mins: supernatant after 10 min mixing; for Assay (% Dissolved) 20 mins: supernatant after 20 min mixing; for Assay (% Dissolved) 30 mins: supernatant after 30 min mixing
Experimental: The active solution of carbetapentane citrate is prepared by dissolving 24.4 g of carbetapentane citrate into 60 ml of water. 530 ml of purified water is placed in a mixing tank and 53.7 g of MAS is added in small portions while mixing the water to form a dispersion. Once the dispersion is uniform and lump-free, 46.7 g of tannic acid (TA), (three times that of the free base of the active), is folded into the dispersion using a planetary mixer with a sweep blade. […] The salt solution is then added in small portions, while continuing to stir the MAS/tannic acid dispersion using the planetary mixer. After all of the salt solution is added, the weight is made up to 800 g with purified water. Mixing is continued and 5 g samples of the conversion after ten, twenty and thirty minutes of mixing are taken in a centrifuge tube. The samples are subsequently centrifuged at 6500 rpm and the resulting supernatant solution is assayed for the presence of active. At the end of thirty minutes, a 10 g sample of the conversion is taken for assay of the actives.

[2] = cited from earlier work

Row | Assay (% Dissolved) 10 mins [1] | Assay (% Dissolved) 20 mins [1] | Assay (% Dissolved) 30 mins [1] | amount of active ingredient present in solution at the ten, twenty and thirty minute mixing times ([1]; in-situ tannate conversion in MAS/tannic acid dispersion) | SMILES | soluble in water [2]
1 | 0.10% | 0.10% | 0.11% |  | COc1ccc(CN(CCN(C)C)c2ccccn2)cc1 [Pyrilamine] | 
2 | 0.12% | 0.13% | 0.14% |  | CN(C)CCC(c1ccc(Cl)cc1)c1ccccn1 (centres unmarked) [Chlorpheniramine] | 
3 | 0.08% | 0.08% | 0.09% |  | CCN(CC)CCOCCOC(=O)C1(c2ccccc2)CCCC1 [Carbetapentane] | 
4 | 37.14% | 47.6% | 47.6% |  | CNC[C@H](O)c1cccc(O)c1 [Phenylephrine] | 
5 |  |  |  | more than 47.0% | CNC[C@H](O)c1cccc(O)c1.Cl [Phenylephrine HCI] | about 100.0%
